“Also recorded” adds a separate entry of the source.
Key:
SARS-CoV-2 (WIV04) = type: cell-based
SARS-CoV S pseudovirus = assay: microbe, parasite or virus in culture; type: cell-based; conditions: Severe acute respiratory syndrome coronavirus; for EC90: Huh-7, read-out: SARS-CoV S pseudovirus EC90; for EC50: Huh-7, read-out: SARS-CoV S pseudovirus EC50
SARS2-S pseudovirus [1] = assay: microbe, parasite or virus in culture; conditions: Huh-7, 48 h; for EC90: read-out: SARS2-S pseudovirus EC90; for EC50: read-out: SARS2-S pseudovirus EC50
VSV-G pseudovirus = assay: microbe, parasite or virus in culture; type: cell-based; conditions: Huh-7, read-out: VSV-G pseudovirus EC50
in vitro = conditions: human
SARS2-S pseudovirus [2] = assay: in vitro; conditions: human
SARS2-S pseudovirus [3] = conditions: Huh-7 cells, screening at 20 µM
COVID-19 = conditions: critically ill patients; cited from earlier work
[4] = Huh-7 CC50, Table 2, mean ± SEM from two independent experiments

Row | SMILES | Activity against native SARS-CoV-2 replication (in words) (SARS-CoV-2 (WIV04)) | EC90 (SARS-CoV S pseudovirus) | EC90 (SARS2-S pseudovirus [1]) | EC50 (VSV-G pseudovirus) | EC50 (SARS-CoV S pseudovirus) | CC50 (in vitro; [4]) | selectivity ratio (SARS2-S pseudovirus [2]) | EC50 (SARS2-S pseudovirus [1]) | CC50 (in vitro; Huh7 CC50) | Activity in SARS2-S pseudovirus screening (in words) (SARS2-S pseudovirus [3]) | Improvement of oxygen support (COVID-19)
1 | CCCCc1oc2ccccc2c1C(=O)c1cc(I)c(OCCN(CC)CC)c(I)c1 [Amiodarone] | significantly inhibited SARS2 replication | > 20 µM | 19.4 µM | – | – | – | – | – | – | – | –
2 | CN1CCCC(n2nc(Cc3ccc(Cl)cc3)c3ccccc3c2=O)CC1 (stereo not drawn) [Azelastine] | significantly inhibited SARS2 replication | > 20 µM | 5.63 µM | > 20 µM | 2.36 ± 1.57 µM | > 20 µM | > 11.3 | 1.81 µM | – | – | –
3 | COc1cc(Nc2c(C#N)cnc3cc(OCCCN4CCN(C)CC4)c(OC)cc23)c(Cl)cc1Cl [Bosutinib] | significantly inhibited SARS2 replication | 3.15 ± 0.01 µM | 1.56 µM | 5.07 µM | 1.04 ± 0.05 µM | 13.6 ± 2.16 µM | 13.6 | 1.3 µM | – | – | –
4 | CN(C)CC/C=C1/c2ccccc2Sc2ccc(Cl)cc21 [Chlorprothixene] | failed to show activity; also recorded: no anti-SARS-CoV-2 activity | – | 23.8 µM | > 20 µM | – | – | > 11.9 | 2.15 µM | – | – | –
5 | CN(C)[C@@H](CCOc1cccc2ccccc12)c1ccccc1 [Dapoxetine] | – | – | 18 µM | 18.9 µM | – | – | 13.1 | 1.19 µM | – | – | –
6 | OCCN1CCN(CCC=C2c3ccccc3Sc3ccc(C(F)(F)F)cc32)CC1 [Flupenthixol] | significantly inhibited SARS2 replication | 10.8 ± 1.05 µM | 8.68 µM | 17.9 µM | 1.39 ± 0.35 µM | 14.7 ± 3.28 µM | 11.7 | 1.45 µM | – | – | –
7 | COc1cc2ncnc(Nc3ccc(F)c(Cl)c3)c2cc1OCCCN1CCOCC1 [Gefitinib] | – | – | 20.3 µM | – | – | – | – | – | – | – | –
8 | CNCCC=C1c2ccccc2CCc2ccccc21 [Nortriptyline] | failed to show activity | – | 5.26 µM | 17.2 µM | – | – | 14.5 | 1.06 µM | 16.8 µM | – | –
9 | OCCN1CCN(CCCN2c3ccccc3Sc3ccc(Cl)cc32)CC1 [Perphenazine] | failed to show activity | – | > 20 µM | > 20 µM | – | – | 14.7 | 2.14 µM | – | – | –
10 | CC(CN1c2ccccc2Sc2ccccc21)N(C)C (stereo not drawn) [Promethazine] | failed to show activity | – | 18.2 µM | > 20 µM | – | – | > 20.8 | 0.96 µM | – | – | –
11 | CNCCCC1c2ccccc2C=Cc2ccccc21 [Protriptyline] | – | – | 7.21 µM | > 20 µM | – | – | > 13.5 | 1.68 µM | > 20 µM | – | –
12 | O=C(O[C@H]1CN2CCC1CC2)N1CCc2ccccc2[C@@H]1c1ccccc1 [Solifenacin] | – | – | 8.98 µM | > 20 µM | – | – | > 9.66 | 2.03 µM | – | – | –
13 | CN(C)CCOc1ccc(/C(=C(/CCCl)c2ccccc2)c2ccccc2)cc1 [Toremifene] | significantly inhibited SARS2 replication | > 20 µM | 13 µM | 17.7 µM | 2.28 ± 1.09 µM | > 20 µM | 8.92 | 1.92 µM | – | – | –
14 | CC(CN(C)C)CN1c2ccccc2Sc2ccccc21 (stereo not drawn) [Trimeprazine] | significantly inhibited SARS2 replication | 4.3 ± 0.48 µM | 3.77 µM | 5.87 µM | 0.66 ± 0.45 µM | 16.7 ± 1.89 µM | 14.2 | 0.97 µM | – | – | –
15 | CN(C)CCCN1c2ccccc2Sc2ccc(Cl)cc21 [chlorpromazine] | – | – | – | – | – | – | – | – | – | limited toxicity/activity window | –
16 | Cc1ccc(NC(=O)c2ccc(CN3CCN(C)CC3)cc2)cc1Nc1nccc(-c2cccnc2)n1 [imatinib] | – | – | – | – | – | – | – | – | – | weak activity | –
17 | CCC(CC)COC(=O)[C@H](C)N[P@](=O)(OC[C@H]1O[C@@](C#N)(c2ccc3c(N)ncnn23)[C@H](O)[C@@H]1O)Oc1ccccc1 [remdesivir] | – | – | – | – | – | – | – | – | – | – | 68%

— PMC7594953 (Acta Pharmacologica Sinica, 2020)
